Test results published in BindingDB's records for doi:10.1016/j.ejmech.2020.112529 (Jagiellonian University, 2020).

target: 5-HT2A receptor (Homo sapiens); test: Displacement of [3H]-Ketanserin from human 5-HT2A receptor expressed in CHO-K1 cells incubated for 1 hr by microbeta counting method

Row | SMILES | Ki [nM]
1 | CN1CCN(c2nc(N)nc(CCCOc3cc(Cl)ccc3Cl)n2)CC1 | 1460
2 | CCCCC(Oc1cc(Cl)cc(Cl)c1)c1nc(N)nc(N2CCN(C)CC2)n1 (configuration not stated) | 839
3 | CN1CCN(c2nc(N)nc(CCCOc3cccc(Cl)c3Cl)n2)CC1 | 649
4 | CC(Oc1ccccc1Cl)c1nc(N)nc(N2CCN(C)CC2)n1 (configuration not stated) | 1830
5 | CC(Oc1cccc(Cl)c1Cl)c1nc(N)nc(N2CCN(C)CC2)n1 (configuration not stated) | 268
6 | CCCCC(Oc1cc(Cl)ccc1Cl)c1nc(N)nc(N2CCN(C)CC2)n1 (configuration not stated) | 431
7 | CN1CCN(c2nc(N)nc(CCCOc3ccc(Cl)c(Cl)c3)n2)CC1 | 906
